In US5939437A, “CCK and gastrin receptor ligands” (James Black Foundation Limited, priority 1994, dated 1999):
One block for each compound: values may come before it.

Experiments:
CCKB = biological target: T1, CCKB (Mus musculus, UniProt P56481); assay: radioligand binding assay at the CCKB (CCK8 [sic]) receptor in mouse cortical membranes; settings: [125I]-CCK8S 200 pM, 150 min at 21±3° C.; for Ki: read-out: CCKB pKi (converted)
T1 construct: The cortex was dissected, weighed and homogenised in 40 ml ice-cold buffer; from tissue; host or cells: cerebral cortex membranes of male CD1 mice (Charles River)
T1 sequence (P56481 1-453): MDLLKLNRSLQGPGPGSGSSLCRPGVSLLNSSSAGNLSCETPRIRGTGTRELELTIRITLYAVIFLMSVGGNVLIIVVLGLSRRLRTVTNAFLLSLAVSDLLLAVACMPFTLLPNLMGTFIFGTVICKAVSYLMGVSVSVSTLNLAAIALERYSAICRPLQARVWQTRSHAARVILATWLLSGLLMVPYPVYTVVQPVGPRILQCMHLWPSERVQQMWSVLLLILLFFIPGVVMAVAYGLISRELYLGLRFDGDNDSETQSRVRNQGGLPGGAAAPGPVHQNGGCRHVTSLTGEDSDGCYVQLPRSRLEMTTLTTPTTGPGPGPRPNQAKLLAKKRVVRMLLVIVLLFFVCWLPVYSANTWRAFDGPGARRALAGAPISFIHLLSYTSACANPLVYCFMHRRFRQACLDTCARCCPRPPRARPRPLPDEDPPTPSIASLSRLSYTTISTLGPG
Protocol: The compounds of the examples were tested for binding at the CCK8 receptor in mouse cortical membranes by means of a radioligand binding assay. The procedure was as follows: The whole brains from male mice (CD1 22-25 g; Charles River) were removed and placed in ice-cold buffer (pH7.2@21±3° C.) of the following composition (mM); 10 HEPES, 130 NaCl, 4.7 KCl, 5 MgCl2, 1 EDTA and containing 0.25 g.1^-1 bacitracin. The cortex was dissected, weighed and homogenised in 40 ml ice-cold buffer using a Teflon-in-glass homogeniser. The homogenate was centrifuged at 39,800 g for 20 min at 4° C., the supernatant discarded and the pellet resuspended by homogenisation in fresh buffer. The homogenate was recentrifuged (39,800 g; 20 min@4° C.) and the final pellet was resuspended in HEPES buffer to give a tissue concentration of 2 mg.ml^-1 (original wet weight). The membranes ([…]) were incubated for 150 min at 21±3° C. in a final volume of 0.5 ml with HEPES buffer containing [^25 I]-CCK8S (0.05 ml; 200 pM NEN 2200 Ci.mmol^-1) and competing compound. Total and non-specific binding of [^125 I]-CCK8S were defined using 0.05 ml of buffer and 0.05 ml of […] L-365,260, respectively. The assay was terminated by rapid filtration through pre-soaked Whatman GF/B 35 filters using a Brandell Cell harvester. The filters were washed (3×3 ml) with ice-cold 5 mM Tris-HCl (pH7.4@4° C.) and bound radioactivity determined by counting (1 min.) in a gamma-counter.

Gastrin = biological target: T2, Gastrin (Rattus norvegicus, UniProt P30553); assay: gastrin antagonist activity in an immature rat stomach assay (pentagastrin-stimulated acid secretion, isolated stomach); settings: cumulative pentagastrin dose-response curves, 60 min after drug; for Kb: read-out: Gastrin pKB (converted)
T2 construct: The stomach was excised and flushed with ca. 1 ml unbuffered physiological saline solution; from tissue; host or cells: isolated whole stomach of immature rats (33-50 g, ca. 21 days old)
T2 sequence (P30553 1-452): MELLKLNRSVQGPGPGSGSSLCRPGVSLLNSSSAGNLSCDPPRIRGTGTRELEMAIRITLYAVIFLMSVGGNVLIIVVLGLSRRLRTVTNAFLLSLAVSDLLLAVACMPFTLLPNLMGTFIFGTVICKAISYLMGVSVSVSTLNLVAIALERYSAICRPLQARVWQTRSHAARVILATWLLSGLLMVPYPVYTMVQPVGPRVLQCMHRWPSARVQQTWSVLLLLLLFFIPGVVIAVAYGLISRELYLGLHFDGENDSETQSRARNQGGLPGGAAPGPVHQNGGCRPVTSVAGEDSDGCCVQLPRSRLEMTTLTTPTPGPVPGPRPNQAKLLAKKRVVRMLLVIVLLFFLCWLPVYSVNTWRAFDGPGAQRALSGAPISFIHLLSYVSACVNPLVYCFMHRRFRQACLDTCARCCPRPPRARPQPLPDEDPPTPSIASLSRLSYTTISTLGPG
Protocol: The compounds of the examples were also tested for gastrin antagonist activity in an immature rat stomach assay. The procedure was follows:
The oesophagus of immature rats (33-50 g, ca. 21 days old) was ligated at the level of the cardiac sphincter and the duodenal sphincter was cannulated. The stomach was excised and flushed with ca. 1 ml unbuffered physiological saline solution. The fundus was punctured and cannulated. A further 4-5 ml of unbuffered solution was flushed through the stomach to ensure the preparation was not leaking. The stomach was lowered into a jacketed organ bath containing 40 ml of buffered solution containing 3×10^-8 M5methylfurmethide, maintained at 37° and gassed vigorously with 95% O2 /5% CO2. The stomach was continuously perfused at a rate of 1 ml min^-1 with unbuffered solution gassed with 100% O2 with the perfusate passing over an internally referenced pH-electrode fixed 12 cm above the stomach.
After 120 min of stabilisation the drugs were added directly to the serosal solution in the organ bath and after a further 60 min cumulative pentagastrin dose-response curves were started. Changes in acid secretion were monitored and the curves analysed according to Black et. al., Br. J. Pharmacol., 1985, 86, 581.

CCKA = biological target: T3, CCKA (Cavia porcellus, UniProt Q63931); assay: CCKA binding assay (guinea-pig pancreas membranes); settings: [125I]-CCK8(S) 200 pM, 0.375 μM PD134,308 present, 150 minutes at 21±3° C.; for Ki: read-out: CCKA pKi (converted)
T3 construct: The pancreatata were homogenised in 40 ml ice-cold HEPES buffer; from tissue; host or cells: pancreas membranes of male Dunkin Hartley guinea-pigs
T3 sequence (Q63931 1-430): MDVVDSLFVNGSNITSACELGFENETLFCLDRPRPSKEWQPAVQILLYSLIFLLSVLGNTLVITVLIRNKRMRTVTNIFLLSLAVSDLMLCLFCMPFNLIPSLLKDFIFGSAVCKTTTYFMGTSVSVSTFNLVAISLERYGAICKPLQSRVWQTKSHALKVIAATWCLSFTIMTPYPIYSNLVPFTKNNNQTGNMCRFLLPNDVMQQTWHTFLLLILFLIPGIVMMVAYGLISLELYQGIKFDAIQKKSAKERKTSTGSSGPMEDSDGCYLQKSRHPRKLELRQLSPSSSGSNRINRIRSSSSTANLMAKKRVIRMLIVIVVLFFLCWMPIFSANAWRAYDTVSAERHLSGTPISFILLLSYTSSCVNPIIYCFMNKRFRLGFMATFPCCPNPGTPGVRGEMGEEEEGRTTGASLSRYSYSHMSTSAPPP
Protocol: The compounds of the examples were also tested in a CCKA binding assay as follows:
The pancreatata were removed from male guinea-pigs (200-300 g; Dunkin Hartley) and placed in ice-cold HEPES buffer (pH 7.2@21 ±3° C.). The pancreatata were homogenised in 40 ml ice-cold HEPES buffer using a polytron (Brinkman, PT10, setting 10) 4×1 second. The homogenate was centrifuged at 39,800 g for 15 min at 4° C. The supernatant was discarded and the pellet re-suspended using a Teflon-in-glass homogeniser in 20 volumes of fresh buffer and re-centrifuged as above. The final pellet was re-suspended using a Teflon-in-glass homogeniser to a tissue concentration of 1 mg.ml^-1 (original wet weight), and filtered through 500 μm pore-size Nytex mesh.
The membranes (400 μl; containing 0.375 μM PD134,308) are incubated for 150 minutes at 21±3° C. in a final volume of 0.5 ml with HEPES buffer containing [^125 I]-CCK8 (S) (50 μl; 200 pM) and competing compound. Total and non-specific binding of [^125 I]-CCK^8 (S) are defined using 50 μl of buffer and 50 μl of 100 nM L-364,718respectively. The assay is terminated by rapid filtration through pre-soaked Whatman GF/B filters using a Brandell Cell Harvester. The filters were washed (3×3 ml) with ice-cold 50 mM Tris HCl (pH 7.4 at 4° C. and bound radioactivity is determined by counting (1 min) in a gamma counter.

Compound: O=C(O)c1cc(NC(=O)[C@H](Cc2ccc(O)cc2)NC(=O)c2ccccc2C(=O)NCC23CC4CC(CC(C4)C2)C3)cc(C(=O)O)c1 [Example 2, (1S-(3,5-dicarboxyphenylaminocarbonyl)-2-(4-hydroxyphenyl)-ethylaminocarbonyl)-2-(1-adamantanemethyl-aminocarbonyl)-benzene]
Ki (CCKB): 1260 nM
Kb (Gastrin): 25.1 nM
Ki (CCKA): 1580 nM

Compound: O=C(O)c1cc(NC(=O)[C@H](Cc2ccccc2F)NC(=O)c2ccccc2C(=O)NCC23CC4CC(CC(C4)C2)C3)cc(C(=O)O)c1 [Example 4]
CCKB pKi (CCKB): 7.0
Gastrin pKB (Gastrin): 7.7
CCKA pKi (CCKA): 5.3

Compound: O=C(O)c1cc(NC(=O)[C@H](Cc2ccccc2)NC(=O)c2ccccc2C(=O)NCC2CCCCCC2)cc(C(=O)O)c1 [Example 7, (1R-(3,5-dicarboxyphenylaminocarbonyl)-2-phenylethylaminocarbonyl)-2-(cycloheptanemethylaminocarbonyl)-benzene]
CCKB pKi (CCKB): 6.5
Gastrin pKB (Gastrin): 6.3
CCKA pKi (CCKA): 5.9

Compound: O=C(O)c1cc(NC(=O)[C@H](Cc2ccccc2)NC(=O)c2cocc2C(=O)NCC23CC4CC(CC(C4)C2)C3)cc(C(=O)O)c1 [Example 12, 3-(1S-(3,5-dicarboxyphenylamino-carbonyl)-2-phenylethylaminocarbonyl)-4-(1-adamantanemethyl-aminocarbonyl)furan]
CCKB pKi (CCKB): 6.3
Gastrin pKB (Gastrin): 6.5
CCKA pKi (CCKA): 5.2

Compound: O=C(O)c1cc(NC(=O)[C@H](Cc2ccccc2)NC(=O)c2c[nH]cc2C(=O)NCC23CC4CC(CC(C4)C2)C3)cc(C(=O)O)c1 [Example 13, 3-(1S-(3,5-dicarboxyphenylamino-carbonyl)-2-phenylethylaminocarbonyl)-4-(1-adamantanemethylamino-carbonyl)pyrrole]
Ki (CCKB): 63.1 nM
Kb (Gastrin): 25.1 nM
Ki (CCKA): 2000 nM

Compound: O=C(O)c1cc(NC(=O)[C@H](Cc2ccccc2)NC(=O)c2cc([N+](=O)[O-])ccc2C(=O)NCC23CC4CC(CC(C4)C2)C3)cc(C(=O)O)c1 [Example 15, 1-(1S-(3,5-dicarboxyphenylamino-carbonyl)-2-phenylethylaminocarbonyl)-2-(l-adamantanemethyl-aminocarbonyl)-5-nitrobenzene]
Ki (CCKB): 1000 nM
Kb (Gastrin): 316 nM
Ki (CCKA): 1000 nM

Next, values leading:

Ki (CCKB): 79.4 nM
Kb (Gastrin): 3.98 nM
CCKA pKi (CCKA): 5.5
Compound: O=C(O)c1cc(NC(=O)[C@H](Cc2ccccc2)NC(=O)c2ccccc2C(=O)NCC23CC4CC(CC(C4)C2)C3)cc(C(=O)O)c1 [Example 1, (1S-(3,5-dicarboxyphenylaminocarbonyl)-2-phenylethylaminocarbonyl)-2-(1-adamantanemethylaminocarbonyl)-benzene]

Ki (CCKB): 398 nM
Kb (Gastrin): 15.8 nM
Ki (CCKA): 7940 nM
Compound: O=C(O)c1cc(NC(=O)[C@@H](Cc2ccccc2)NC(=O)c2ccccc2C(=O)NCC23CC4CC(CC(C4)C2)C3)cc(C(=O)O)c1 [Example 3, (1R-(3,5-dicarboxyphenylaminocarbonyl)-2-phenylethylaminocarbonyl)-2-(1-adamantanemethylaminocarbonyl)-benzene]

CCKB pKi (CCKB): 6.3
Gastrin pKB (Gastrin): 6.1
CCKA pKi (CCKA): 6.3
Compound: O=C(O)c1cc(NC(=O)[C@H](Cc2ccccc2)NC(=O)c2ccccc2C(=O)NCc2ccc3ccccc3c2)cc(C(=O)O)c1 [Example 6, (1R-(3,5-dicarboxyphenylaminocarbonyl)-2-phenylethylaminocarbonyl)-2-(2-naphthalenemethylaminocarbonyl)-benzene]

Ki (CCKB): 794 nM
Kb (Gastrin): 39.8 nM
Ki (CCKA): 2000 nM
Compound: O=C(O)c1cc(NC(=O)[C@H](Cc2ccccc2)NC(=O)c2ncccc2C(=O)NCC23CC4CC(CC(C4)C2)C3)cc(C(=O)O)c1 [Example 10, 2-(1S-(3,5-dicarboxyphenylamino-carbonyl)-2-phenylethylaminocarbonyl)-3-(1-adamantanemethylamino-carbonyl)pyridine]

Ki (CCKB): 501 nM
Kb (Gastrin): 100 nM
Ki (CCKA): 3160 nM
Compound: O=C(O)c1cc(NC(=O)[C@H](Cc2ccccc2)NC(=O)c2ccc([N+](=O)[O-])cc2C(=O)NCC23CC4CC(CC(C4)C2)C3)cc(C(=O)O)c1 [Example 14, 1-(1S-(3,5-dicarboxyphenylamino-carbonyl)-2-phenylethylaminocarbonyl)-2-(1-adamantanemethyl-aminocarbonyl)-4-nitrobenzene]
